Measured values reported in BindingDB's records for doi:10.1016/s0960-894x(98)00019-5 (Abbott Laboratories, 1999).

Assay: Inhibitory concentration to antagonise cation efflux in nAChR subtype human alpha3betaX, expressed in IMR-32 cells

## CCCCc1cncc(OC[C@@H]2CCCN2C)c1 [3-Butyl-5-((S)-1-methyl-pyrrolidin-2-ylmethoxy)-pyridine]
  IC50: 5 µM

## CCCc1cncc(OC[C@@H]2CCCN2C)c1 [3-((S)-1-Methyl-pyrrolidin-2-ylmethoxy)-5-propyl-pyridine]
  IC50: 3.2 µM
